Test results taken from PubChem BioAssay AID248 (DTP/NCI, 2004).
Toxic doses and inconclusive results are not listed. No stated cut-off is given here; in the data, active means T/C of 150% or more; inactive means T/C below 125%.

Tested on: L1210 leukemia ip in BDF1 mice, survival T/C
Assay: NCI In Vivo Anticancer Drug Screen. Data for tumor model L1210 Leukemia (intraperitoneal) in B6D2F1 (BDF1) mice
Details: endpoint: mean survival time, higher = longer survival
Outline: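 Read-out is survival time, reported as the treated-group measurement over the vehicle-control measurement.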

[1] = dose: 100.0 mg/kg/injection, schedule: Q04DX003 (ip), vehicle: Klucel (hydroxypropylcellulose) (HPC)
[2] = dose: 200.0 mg/kg/injection, schedule: Q04DX003 (ip), vehicle: Klucel (hydroxypropylcellulose) (HPC)
[3] = dose: 400.0 mg/kg/injection, schedule: Q04DX003 (ip), vehicle: Klucel (hydroxypropylcellulose) (HPC)
[4] = dose: 100.0 mg/kg/injection, schedule: Q04DX002 (ip), vehicle: Klucel (hydroxypropylcellulose) (HPC)
[5] = dose: 200.0 mg/kg/injection, schedule: Q04DX002 (ip), vehicle: Klucel (hydroxypropylcellulose) (HPC)
[6] = dose: 400.0 mg/kg/injection, schedule: Q04DX002 (ip), vehicle: Klucel (hydroxypropylcellulose) (HPC)
[7] = dose: 100.0 mg/kg/injection, schedule: Q01DX009 (ip), vehicle: Klucel (hydroxypropylcellulose) (HPC)
[8] = dose: 200.0 mg/kg/injection, schedule: Q01DX009 (ip), vehicle: Klucel (hydroxypropylcellulose) (HPC)
[9] = dose: 50.0 mg/kg/injection, schedule: Q01DX009 (ip), vehicle: Klucel (hydroxypropylcellulose) (HPC)
[10] = dose: 100.0 mg/kg/injection, schedule: Q01DX001 (ip), vehicle: saline
[11] = dose: 100.0 mg/kg/injection, schedule: Q01DX009 (ip), vehicle: saline with Tween-80

Measured: T/C

S=C(NNc1ccccc1)NC1CCCCC1
inactive: dose: 150.0 mg/kg/injection, schedule: Q01DX009 (ip), vehicle: saline with Tween-80 95 % of control | dose: 225.0 mg/kg/injection, schedule: Q01DX009 (ip), vehicle: saline with Tween-80 97 % of control | dose: 335.0 mg/kg/injection, schedule: Q01DX009 (ip), vehicle: saline with Tween-80 92 % of control

c1ccc(P(CC[As](c2ccccc2)c2ccccc2)CC[As](c2ccccc2)c2ccccc2)cc1
inactive: [1] 93 % of control | [2] 93 % of control | [3] 96 % of control

CC(C)(C)NC(=O)Nc1nccs1
inactive: dose: 100.0 mg/kg/injection, schedule: Q01DX009 (ip), vehicle: other 100 % of control | dose: 200.0 mg/kg/injection, schedule: Q01DX009 (ip), vehicle: other 107 % of control

O=C1C(=O)c2ccccc2C(O)=C1C(C1=C(O)c2ccccc2C(=O)C1=O)c1ccc(Cl)cc1Cl
inactive: dose: 75.0 mg/kg/injection, schedule: Q01DX001 (ip), vehicle: other 91 % of control | dose: 150.0 mg/kg/injection, schedule: Q01DX001 (ip), vehicle: other 91 % of control | dose: 300.0 mg/kg/injection, schedule: Q01DX001 (ip), vehicle: other 107 % of control

CC(C)(S)C(N)C(N)=O (stereo not given)
inactive: [4] 103 % of control | [5] 97 % of control | [6] 97 % of control

NNC(=O)CNc1cccc(F)c1
inactive: [4] 105 % of control | [5] 119 % of control

CCCCCCCCCCCCCCCCN(C)/C(=N\NS(=O)(=O)c1cccc([N+](=O)[O-])c1)c1ccc(OC)c(OC)c1
inactive: [1] 93 % of control | [2] 95 % of control | [3] 93 % of control

Cc1cc(C)c(C(=O)c2ccc([N+](=O)[O-])cc2)c(C)c1
inactive: [7] 98 % of control | [1] 105 % of control | [8] 86 % of control | [2] 95 % of control | dose: 400.0 mg/kg/injection, schedule: Q01DX009 (ip), vehicle: Klucel (hydroxypropylcellulose) (HPC) 86 % of control | [3] 94 % of control

CCCCCCCCCCCc1nc(N)nc(NCCCC)n1
inactive: dose: 12.5 mg/kg/injection, schedule: Q01DX009 (ip), vehicle: Klucel (hydroxypropylcellulose) (HPC) 97 % of control | dose: 25.0 mg/kg/injection, schedule: Q01DX009 (ip), vehicle: Klucel (hydroxypropylcellulose) (HPC) 96 % of control | dose: 25.0 mg/kg/injection, schedule: Q04DX002 (ip), vehicle: Klucel (hydroxypropylcellulose) (HPC) 93 % of control | [9] 86 % of control | dose: 50.0 mg/kg/injection, schedule: Q04DX002 (ip), vehicle: Klucel (hydroxypropylcellulose) (HPC) 96 % of control | [5] 89 % of control | [6] 89 % of control

N\C([S-])=N/N=C\C(=N/N=C(\N)[S-])C(O)C(O)C(O)CO.[Pd+2] (stereo not given)
inactive: dose: 100.0 mg/kg/injection, schedule: Q04DX003 (ip), vehicle: saline 93 % of control | dose: 200.0 mg/kg/injection, schedule: Q04DX003 (ip), vehicle: saline 91 % of control

CCCCc1ccncc1
inactive: dose: 5.0 mg/kg/injection, schedule: Q01DX001 (ip), vehicle: saline 102 % of control | dose: 10.0 mg/kg/injection, schedule: Q01DX001 (ip), vehicle: saline 100 % of control | dose: 20.0 mg/kg/injection, schedule: Q01DX001 (ip), vehicle: saline 100 % of control | dose: 40.0 mg/kg/injection, schedule: Q01DX001 (ip), vehicle: saline 90 % of control | dose: 80.0 mg/kg/injection, schedule: Q01DX001 (ip), vehicle: saline 93 % of control | [10] 98 % of control

Fc1cc(F)c(F)c(Nc2ccccc2)c1F
inactive: dose: 25.6 mg/kg/injection, schedule: Q04DX002 (ip), vehicle: saline with Tween-80 113 % of control | dose: 64.0 mg/kg/injection, schedule: Q04DX002 (ip), vehicle: saline with Tween-80 89 % of control | dose: 160.0 mg/kg/injection, schedule: Q04DX002 (ip), vehicle: saline with Tween-80 95 % of control | dose: 400.0 mg/kg/injection, schedule: Q04DX002 (ip), vehicle: saline with Tween-80 106 % of control

CCN(CC)CCOC(=O)N1c2ccccc2Sc2ccccc21
inactive: dose: 25.0 mg/kg/injection, schedule: Q01DX009 (ip), vehicle: saline with Tween-80 100 % of control | [9] 102 % of control | dose: 50.0 mg/kg/injection, schedule: Q01DX009 (ip), vehicle: saline with Tween-80 103 % of control | [7] 102 % of control | [11] 103 % of control | [1] 98 % of control | dose: 100.0 mg/kg/injection, schedule: Q04DX003 (ip), vehicle: saline with Tween-80 93 % of control | [2] 93 % of control

CN=C(Nc1ccccn1)c1ccc(NC(=O)c2ccc(C(=O)Nc3ccc(C(=NC)Nc4ccccn4)cc3)cc2)cc1
inactive: dose: 1.87 mg/kg/injection, schedule: Q01DX015 (ip), vehicle: methylcellulose (MC) 95 % of control | dose: 3.75 mg/kg/injection, schedule: Q01DX015 (ip), vehicle: methylcellulose (MC) 96 % of control | dose: 7.5 mg/kg/injection, schedule: Q01DX015 (ip), vehicle: methylcellulose (MC) 108 % of control | dose: 15.0 mg/kg/injection, schedule: Q01DX015 (ip), vehicle: methylcellulose (MC) 101 % of control

O=C1c2cscc2Cc2sccc21
inactive: dose: 100.0 mg/kg/injection, schedule: Q01DX001 (ip), vehicle: saline with Tween-80 95 % of control | dose: 200.0 mg/kg/injection, schedule: Q01DX001 (ip), vehicle: saline with Tween-80 92 % of control | dose: 400.0 mg/kg/injection, schedule: Q01DX001 (ip), vehicle: saline with Tween-80 88 % of control

CC(C)(C)CCCC1C(=O)N(c2ccccc2)N(c2ccccc2)C1=O
inactive: [9] 110 % of control | [7] 110 % of control | [1] 106 % of control | [8] 112 % of control | [2] 96 % of control | [3] 101 % of control

CCC(C)(CC=C(C)C)c1ccncc1 (stereo not given)
inactive: [10] 98 % of control

O=C(NCCCl)NCc1ccccc1
inactive: [1] 103 % of control | [2] 107 % of control | [3] 113 % of control

COc1ccc(-n2nnnc2N)cc1
inactive: dose: 100.0 mg/kg/injection, schedule: Q01DX001 (ip), vehicle: Klucel (hydroxypropylcellulose) (HPC) 99 % of control | dose: 200.0 mg/kg/injection, schedule: Q01DX001 (ip), vehicle: Klucel (hydroxypropylcellulose) (HPC) 102 % of control | dose: 400.0 mg/kg/injection, schedule: Q01DX001 (ip), vehicle: Klucel (hydroxypropylcellulose) (HPC) 96 % of control

CSc1cc(C)c(OC(=O)Nc2ccccc2F)c(CO)c1
inactive: [11] 97 % of control | dose: 200.0 mg/kg/injection, schedule: Q01DX009 (ip), vehicle: saline with Tween-80 98 % of control | dose: 400.0 mg/kg/injection, schedule: Q01DX009 (ip), vehicle: saline with Tween-80 114 % of control
